The text below walks through data of patent US20220402948A1, “EGFR INHIBITOR, COMPOSITION AND PREPARATION METHOD THEREFOR” (BETTA PHARMACEUTICALS CO., LTD., priority 2019, published 2022).

By IC50 is commonly meant the concentration needed to halve the response being measured.

The structures appear in SMILES notation. Read-outs that look alike come from different tables or passages of the source.

Experiment [1] has as its target Ba/F3 cells with EGFR Δ19del/T790M/C797S mutation gene stably overexpressed (Homo sapiens, UniProt P00533, T790M/C797S, cells depend on it, form not given). The experiment is described as follows: Ba/F3-Δ19del/T790M/C797S cell proliferation assay (CellTiter Glo, 72 hours). Type of experiment: cell-based. Particulars: Table 2, read-out: EGFR Δ19del/T790M/C797S IC50. In short, it runs like this: (§1)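 Ba/F3 cells stably overexpressing wild-type EGFR or EGFR Δ19del/T790M/C797S were seeded at 2000 cells/well and incubated 72 h with compound. Viability was read by CellTiter-Glo luminescence, and IC50 came from a four-parameter logistic fit of signal against log concentration.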

The target of experiment [2] is Ba/F3-EGFR wild-type cell line (Homo sapiens, UniProt P00533). As to the kind of experiment: Ba/F3-EGFR wild-type cell proliferation assay (CellTiter Glo, 72 hours). Type of experiment: cell-based. Conditions: Table 2, read-out: EGFR WT IC50. The method, boiled down:
as §1

In the next experiment the target is IGF1R (Homo sapiens, UniProt P08069). As to the kind of experiment: IGF1R kinase test (mobility variation analysis, Caliper EZ Reader). Type of experiment: biochemical. Conditions: kinase enzymatic activity, Table 1; read-out: EGFR IGF1R IC50. In short, it runs like this:
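Mobility-shift readout of substrate conversion, normalised to positive (no compound) and negative (no kinase) controls, gives % inhibition and IC50 by four-parameter fit. Compounds, 3-fold dilutions over 10 concentrations starting at 3000 nM, preincubated 10 min with kinase before ATP/substrate start; room temperature.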

For the next experiment, the system named is A431. As to the kind of experiment: A431 cell proliferation assay (CellTiter Glo, 72 hours). In kind it is cell-based. Particulars: cell proliferation, A431, 72 hours, Table 2, read-out: A431 IC50. In short, it runs like this:
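Luminescence (CellTiter-Glo) after 72 h treatment gives viability, fitted by nonlinear regression to yield IC50. Cells seeded at 2000 per well; nine 3-fold concentrations from 1000 nM, DMSO final 0.1% (0.5% for certain compounds).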
For orientation: In ATP-based viability assays light output follows the ATP content of the culture.

In the next experiment the target is EGFR WT (Homo sapiens, UniProt P00533). The experiment is described as follows: EGFR WT kinase test (mobility variation analysis, Caliper EZ Reader). Type of experiment: biochemical. Conditions: kinase enzymatic activity, Table 1. The method, boiled down: (§2)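 Read-out is substrate-to-product conversion by mobility shift, stopped after incubation at room temperature with ATP and substrate, following a 10-minute room-temperature compound–enzyme pre-incubation. IC50 obtained by four-parameter variable-slope fitting of inhibition normalized between enzyme-free and uninhibited controls.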

For the next experiment, the target named is EGFRΔ19del/T790M/C797S (Homo sapiens, UniProt P00533, T790M/C797S, form not given). As to the kind of experiment: EGFR Δ19del/T790M/C797S kinase test (mobility variation analysis, Caliper EZ Reader). Type of experiment: biochemical. Particulars: kinase enzymatic activity, Table 1. In short, it runs like this: as §2
Sequence of EGFRΔ19del/T790M/C797S (P00533 with tags, fused parts or gaps DEL746-750/T790M/C797S, form open): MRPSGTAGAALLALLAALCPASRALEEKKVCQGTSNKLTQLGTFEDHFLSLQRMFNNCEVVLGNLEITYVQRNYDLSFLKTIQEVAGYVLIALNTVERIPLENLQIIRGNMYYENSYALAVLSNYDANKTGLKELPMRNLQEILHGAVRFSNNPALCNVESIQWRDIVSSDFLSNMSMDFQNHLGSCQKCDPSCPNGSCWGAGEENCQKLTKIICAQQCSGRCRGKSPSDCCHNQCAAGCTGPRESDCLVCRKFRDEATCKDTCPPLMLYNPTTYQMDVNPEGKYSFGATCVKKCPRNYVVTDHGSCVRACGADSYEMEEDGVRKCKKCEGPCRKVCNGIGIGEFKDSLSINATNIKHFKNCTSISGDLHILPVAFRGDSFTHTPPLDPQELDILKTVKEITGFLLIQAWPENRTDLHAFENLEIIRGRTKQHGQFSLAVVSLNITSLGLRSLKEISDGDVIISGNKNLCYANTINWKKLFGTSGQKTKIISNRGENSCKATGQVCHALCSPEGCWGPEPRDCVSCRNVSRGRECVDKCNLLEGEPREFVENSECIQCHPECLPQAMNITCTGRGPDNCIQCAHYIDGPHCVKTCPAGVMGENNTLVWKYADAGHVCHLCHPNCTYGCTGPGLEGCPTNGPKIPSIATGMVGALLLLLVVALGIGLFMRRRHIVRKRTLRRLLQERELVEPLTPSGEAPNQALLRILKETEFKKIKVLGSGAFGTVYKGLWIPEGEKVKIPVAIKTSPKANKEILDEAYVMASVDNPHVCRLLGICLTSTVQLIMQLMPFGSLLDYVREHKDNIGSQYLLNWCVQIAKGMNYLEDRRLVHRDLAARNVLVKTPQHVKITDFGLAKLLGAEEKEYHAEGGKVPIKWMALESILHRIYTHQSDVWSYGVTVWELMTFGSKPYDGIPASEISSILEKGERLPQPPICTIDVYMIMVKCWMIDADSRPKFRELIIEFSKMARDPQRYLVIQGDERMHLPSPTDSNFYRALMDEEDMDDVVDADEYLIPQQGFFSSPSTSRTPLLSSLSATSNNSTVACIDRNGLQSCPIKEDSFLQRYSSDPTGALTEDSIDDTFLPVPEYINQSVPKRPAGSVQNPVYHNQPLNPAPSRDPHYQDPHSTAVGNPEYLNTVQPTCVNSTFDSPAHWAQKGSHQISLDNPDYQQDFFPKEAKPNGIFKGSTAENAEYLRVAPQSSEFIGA

Sequence of IGF1R (P08069 31-1367, species assumed): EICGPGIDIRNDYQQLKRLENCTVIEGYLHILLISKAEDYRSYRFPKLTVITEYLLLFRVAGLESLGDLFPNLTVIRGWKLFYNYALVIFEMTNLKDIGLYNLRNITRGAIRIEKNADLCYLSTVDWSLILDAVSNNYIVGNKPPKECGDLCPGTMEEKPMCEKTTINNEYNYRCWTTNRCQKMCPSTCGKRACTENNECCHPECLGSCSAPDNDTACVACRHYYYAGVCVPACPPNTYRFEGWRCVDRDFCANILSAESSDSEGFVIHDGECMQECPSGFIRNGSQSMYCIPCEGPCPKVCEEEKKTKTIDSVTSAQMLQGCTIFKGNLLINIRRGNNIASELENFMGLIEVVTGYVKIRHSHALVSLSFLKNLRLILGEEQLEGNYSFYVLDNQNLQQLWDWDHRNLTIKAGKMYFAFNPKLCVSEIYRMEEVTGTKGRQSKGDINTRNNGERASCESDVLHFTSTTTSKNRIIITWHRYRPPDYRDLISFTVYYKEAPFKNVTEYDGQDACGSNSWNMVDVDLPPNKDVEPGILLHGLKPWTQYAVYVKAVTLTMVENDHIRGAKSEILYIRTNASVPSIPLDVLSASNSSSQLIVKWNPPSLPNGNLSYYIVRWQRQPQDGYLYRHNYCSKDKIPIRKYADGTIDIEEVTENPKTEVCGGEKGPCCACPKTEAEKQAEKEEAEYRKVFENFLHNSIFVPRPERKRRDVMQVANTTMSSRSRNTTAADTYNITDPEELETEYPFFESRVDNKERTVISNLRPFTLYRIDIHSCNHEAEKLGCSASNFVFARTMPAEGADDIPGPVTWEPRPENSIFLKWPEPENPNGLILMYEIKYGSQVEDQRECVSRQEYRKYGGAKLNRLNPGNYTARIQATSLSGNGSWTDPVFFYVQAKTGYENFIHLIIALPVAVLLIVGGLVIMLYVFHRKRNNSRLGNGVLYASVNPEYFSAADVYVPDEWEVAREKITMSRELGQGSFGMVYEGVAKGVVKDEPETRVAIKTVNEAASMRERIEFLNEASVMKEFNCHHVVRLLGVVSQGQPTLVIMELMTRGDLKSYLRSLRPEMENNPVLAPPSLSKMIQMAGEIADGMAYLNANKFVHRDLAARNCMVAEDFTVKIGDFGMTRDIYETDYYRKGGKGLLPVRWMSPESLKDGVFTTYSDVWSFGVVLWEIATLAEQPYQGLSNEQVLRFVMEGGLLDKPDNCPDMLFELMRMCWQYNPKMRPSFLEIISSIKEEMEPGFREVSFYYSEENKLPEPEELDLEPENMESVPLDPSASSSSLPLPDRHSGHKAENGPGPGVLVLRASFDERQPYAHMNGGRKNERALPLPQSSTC
Sequence of Ba/F3-EGFR wild-type cell line (P00533 whole entry, change not shown): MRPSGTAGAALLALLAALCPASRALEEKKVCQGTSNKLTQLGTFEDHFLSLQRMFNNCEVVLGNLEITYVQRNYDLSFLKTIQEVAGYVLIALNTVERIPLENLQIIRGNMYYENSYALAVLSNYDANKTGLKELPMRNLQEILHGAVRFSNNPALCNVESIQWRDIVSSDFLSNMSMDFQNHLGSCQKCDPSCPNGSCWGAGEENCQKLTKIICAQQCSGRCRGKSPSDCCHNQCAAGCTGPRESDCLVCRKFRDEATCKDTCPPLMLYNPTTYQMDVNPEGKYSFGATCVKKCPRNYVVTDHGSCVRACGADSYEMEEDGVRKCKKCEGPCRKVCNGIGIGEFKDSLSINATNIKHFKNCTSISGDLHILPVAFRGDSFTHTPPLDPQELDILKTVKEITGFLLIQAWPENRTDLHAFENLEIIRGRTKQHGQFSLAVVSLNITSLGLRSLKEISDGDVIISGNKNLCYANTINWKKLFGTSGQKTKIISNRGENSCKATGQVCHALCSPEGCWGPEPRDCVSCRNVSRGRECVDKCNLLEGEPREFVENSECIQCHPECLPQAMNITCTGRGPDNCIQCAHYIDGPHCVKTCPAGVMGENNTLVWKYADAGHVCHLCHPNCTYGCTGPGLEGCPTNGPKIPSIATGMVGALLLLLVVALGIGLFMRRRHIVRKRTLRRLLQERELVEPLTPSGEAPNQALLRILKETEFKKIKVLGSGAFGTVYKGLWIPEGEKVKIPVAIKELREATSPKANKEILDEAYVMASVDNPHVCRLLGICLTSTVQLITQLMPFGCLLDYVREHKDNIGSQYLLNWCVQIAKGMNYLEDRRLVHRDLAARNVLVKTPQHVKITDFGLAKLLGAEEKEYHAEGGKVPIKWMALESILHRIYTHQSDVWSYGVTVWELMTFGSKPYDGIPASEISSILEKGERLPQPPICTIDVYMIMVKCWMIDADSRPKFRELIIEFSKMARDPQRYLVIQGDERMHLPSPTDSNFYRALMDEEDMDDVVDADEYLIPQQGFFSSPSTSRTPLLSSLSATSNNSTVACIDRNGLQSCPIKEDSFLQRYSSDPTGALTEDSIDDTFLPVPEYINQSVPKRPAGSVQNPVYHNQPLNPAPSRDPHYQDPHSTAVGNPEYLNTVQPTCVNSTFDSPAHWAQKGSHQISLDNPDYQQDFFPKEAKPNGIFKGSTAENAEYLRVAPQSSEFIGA
Sequence of EGFR WT (P00533 25-1210): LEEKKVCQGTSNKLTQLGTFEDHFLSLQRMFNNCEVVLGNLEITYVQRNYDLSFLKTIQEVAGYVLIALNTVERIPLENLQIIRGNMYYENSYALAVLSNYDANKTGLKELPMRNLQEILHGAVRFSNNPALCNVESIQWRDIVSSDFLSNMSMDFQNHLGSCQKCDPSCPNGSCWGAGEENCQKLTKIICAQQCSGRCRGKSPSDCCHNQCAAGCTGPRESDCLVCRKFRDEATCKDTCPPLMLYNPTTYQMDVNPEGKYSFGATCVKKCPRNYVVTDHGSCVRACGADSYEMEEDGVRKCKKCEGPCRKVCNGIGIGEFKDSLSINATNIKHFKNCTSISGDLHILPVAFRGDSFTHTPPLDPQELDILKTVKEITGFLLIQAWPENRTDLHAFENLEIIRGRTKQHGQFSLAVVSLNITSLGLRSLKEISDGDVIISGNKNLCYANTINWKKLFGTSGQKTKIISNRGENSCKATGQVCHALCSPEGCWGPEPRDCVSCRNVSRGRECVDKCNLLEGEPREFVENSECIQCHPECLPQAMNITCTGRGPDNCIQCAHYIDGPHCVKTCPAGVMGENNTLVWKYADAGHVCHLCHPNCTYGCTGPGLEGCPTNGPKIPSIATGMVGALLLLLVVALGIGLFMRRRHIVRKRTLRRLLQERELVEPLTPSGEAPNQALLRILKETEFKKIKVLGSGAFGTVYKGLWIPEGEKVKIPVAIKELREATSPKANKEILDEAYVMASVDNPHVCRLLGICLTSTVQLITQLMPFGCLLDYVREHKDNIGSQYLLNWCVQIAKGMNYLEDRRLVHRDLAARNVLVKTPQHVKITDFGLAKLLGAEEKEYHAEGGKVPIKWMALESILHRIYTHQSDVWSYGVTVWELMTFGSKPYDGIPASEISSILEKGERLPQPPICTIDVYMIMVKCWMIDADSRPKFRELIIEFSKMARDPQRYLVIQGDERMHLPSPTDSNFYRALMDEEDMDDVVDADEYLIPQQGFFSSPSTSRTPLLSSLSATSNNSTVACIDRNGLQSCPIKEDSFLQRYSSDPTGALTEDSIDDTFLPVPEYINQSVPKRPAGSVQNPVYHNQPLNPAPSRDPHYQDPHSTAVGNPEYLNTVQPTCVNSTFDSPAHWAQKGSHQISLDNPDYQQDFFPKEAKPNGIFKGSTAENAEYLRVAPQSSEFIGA

With `CCc1cc(Nc2ncc(Br)c(Nc3ccc(-c4ccccc4F)cc3P(C)(C)=O)n2)c(OC)cc1N1CCC(N2CCOCC2)CC1` [Compound K-048], the GI50 in experiment [1] is 12.9 nM; in experiment [2], 156 nM. For the same compound, the IC50 on IGF1R was 587 nM; with A431 (Homo sapiens, A-431, 72 h), 23100 nM; against EGFR WT, 77.2 nM; at EGFRΔ19del/T790M/C797S, 1 nM.
For `CCc1cc(Nc2ncc(Br)c(Nc3ccc(-c4ccccc4C)cc3P(C)(C)=O)n2)c(OC)cc1N1CCC(N2CCOCC2)CC1` [Compound K-049, (4-((5-Bromo-2-((5-ethyl-2-methoxy-4-(4-morpholinopiperidin-1-yl)phenyl)amino)pyrimidin-4-yl)amino)-2′-methyl-[1,1′-biphenyl]-3-yl)dimethylphosphine oxide], the GI50 was found to be 38.4 nM in experiment [1] and 373 nM in experiment [2]. The IC50 at IGF1R was 432 nM; in the experiment on A431 (Homo sapiens, A-431, 72 h), 1470 nM; against EGFR WT, 31.7 nM; against EGFRΔ19del/T790M/C797S, 0.8 nM.
Turning to `CCc1cc(Nc2ncc(Br)c(Nc3ccc(-c4ccccc4)c(C)c3P(C)(C)=O)n2)c(OC)cc1N1CCC(N2CCN(C)CC2)CC1` [Compound K-050, (4-((5-Bromo-2-((5-ethyl-2-methoxy-4-(4-(4-methylpiperazin-1-yl)piperidin-1-yl)phenyl)amino)pyrimidin-4-yl)amino)-2-methyl-[1,1′-biphenyl]-3-yl)dimethylphosphine oxide], the GI50 in experiment [1] was found to be 20.6 nM; in experiment [2] it was 218 nM. In addition, the IC50 came out at 121 nM on IGF1R; 1030 nM in the experiment with A431 (Homo sapiens, A-431, 72 h); 12.3 nM against EGFR WT; 1.1 nM against EGFRΔ19del/T790M/C797S.
For `CCc1cc(Nc2ncc(Br)c(Nc3ccc(-n4cc(OC)cn4)cc3P(C)(C)=O)n2)c(OC)cc1N1CCC(N2CCN(C)CC2)CC1` [Compound K-054, (2-((5-Bromo-2-((5-ethyl-2-methoxy-4-(4-(4-methylpiperazin-1-yl)piperidin-1-yl)phenyl)amino)pyrimidin-4-yl)amino)-5-(4-methoxy-1H-pyrazol-1-yl)phenyl)dimethylphosphine oxide], the GI50 in experiment [1] came out at 19.1 nM; in experiment [2], 343 nM. Besides, the IC50 on IGF1R came out at 268 nM; in the experiment with A431 (Homo sapiens, A-431, 72 h), 1510 nM; at EGFR WT it was 32 nM; against EGFRΔ19del/T790M/C797S it was 0.2 nM.
In the case of `CCc1cc(Nc2ncc(Br)c(Nc3ccc(-c4cnn(CC)n4)cc3P(C)(C)=O)n2)c(OC)cc1N1CCC(N2CCN(C)CC2)CC1` [Compound K-062, (2-((5-Bromo-2-((5-ethyl-2-methoxy-4-(4-(4-methylpiperazin-1-yl)piperidin-1-yl)phenyl)amino)pyrimidin-4-yl)amino)-5-(2-ethyl-2H-1,2,3-triazol-4-yl)phenyl)dimethylphosphine oxide], the GI50 is 23.9 nM in experiment [1] and 459 nM in experiment [2]. Moreover, the IC50 at IGF1R came out at 126 nM; in the experiment with A431 (Homo sapiens, A-431, 72 h), 1800 nM; against EGFR WT it was 18 nM; on EGFRΔ19del/T790M/C797S, 0.2 nM.
As for `CCc1cc(Nc2ncc(Br)c(Nc3ccc(-c4cc(C)n(C)n4)cc3P(C)(C)=O)n2)c(OC)cc1N1CCC(N2CCN(C)CC2)CC1` [Compound K-066], the GI50 in experiment [1] was 10.6 nM; in experiment [2], 105 nM. Also, the IC50 amounted to 134 nM at IGF1R; 2300 nM with A431 (Homo sapiens, A-431, 72 h); 13.9 nM on EGFR WT; 1.1 nM against EGFRΔ19del/T790M/C797S.
Regarding `CCc1cc(Nc2ncc(Br)c(Nc3ccc(-n4cc(C)cn4)cc3P(C)(C)=O)n2)c(OC)cc1N1CCC(N2CCN(C)CC2)CC1` [Compound K-069, (2-((5-Bromo-2-((5-ethyl-2-methoxy-4-(4-(4-methylpiperazin-1-yl)piperidin-1-yl)phenyl)amino)pyrimidin-4-yl)amino)-5-(4-methyl-1H-pyrazol-1-yl)phenyl)dimethylphosphine oxide], the GI50 worked out at 37.4 nM in experiment [1] and 355 nM in experiment [2]. In addition, the IC50 at IGF1R amounted to 219 nM; in the experiment on A431, 1610 nM; at EGFR WT, 26.7 nM; against EGFRΔ19del/T790M/C797S, 0.67 nM.
With `CCc1cc(Nc2ncc(Br)c(Nc3ccc(-c4ccc(C)cn4)cc3P(C)(C)=O)n2)c(OC)cc1N1CCC(N2CCN(C)CC2)CC1` [Compound K-071, (2-((5-Bromo-2-((5-ethyl-2-methoxy-4-(4-(4-methylpiperazin-1-yl)piperidin-1-yl)phenyl)amino)pyrimidin-4-yl)amino)-5-(5-methylpyridin-2-yl)phenyl)dimethylphosphine oxide], the GI50 in experiment [1] is 21 nM; in experiment [2], 218 nM. Also, the 50% inhibitory concentration (IC50) turned out to be 180 nM on IGF1R, 2540 nM in the experiment on A431, 29.4 nM on EGFR WT and 0.3 nM at EGFRΔ19del/T790M/C797S.
Regarding `CCc1cc(Nc2ncc(Br)c(Nc3ccc(-c4ccc(OC)s4)cc3P(C)(C)=O)n2)c(OC)cc1N1CCC(N2CCN(C)CC2)CC1` [Compound K-072, (2-((5-Bromo-2-((5-ethyl-2-methoxy-4-(4-(4-methylpiperazin-1-yl)piperidin-1-yl)phenyl)amino)pyrimidin-4-yl)amino)-5-(5-methoxythiophen-2-yl)phenyl)dimethylphosphine oxide], the GI50 was found to be 50.3 nM in experiment [1] and 446 nM in experiment [2]. Moreover, the 50% inhibitory concentration (IC50) at IGF1R amounted to 150 nM; in the experiment on A431 (Homo sapiens, A-431, 72 h), 1930 nM; on EGFR WT, 12 nM; at EGFRΔ19del/T790M/C797S, 0.96 nM.
Consider `CCc1cc(Nc2ncc(Br)c(Nc3ccc(-c4nc(Cl)cs4)cc3P(C)(C)=O)n2)c(OC)cc1N1CCC(N2CCN(C)CC2)CC1` [Compound K-073, (2-((5-Bromo-2-((5-ethyl-2-methoxy-4-(4-(4-methylpiperazin-1-yl)piperidin-1-yl)phenyl)amino)pyrimidin-4-yl)amino)-5-(4-chlorothiazol-2-yl)phenyl)dimethylphosphine oxide], for which the GI50 in experiment [1] amounted to 27.7 nM; in experiment [2], 407 nM. The IC50 on IGF1R was 127 nM; with A431 (Homo sapiens, A-431, 72 h), 1510 nM; at EGFR WT it was 22.2 nM; on EGFRΔ19del/T790M/C797S it was 0.3 nM.
Regarding `CCc1cc(Nc2ncc(Br)c(Nc3ccc(-c4ccc(OC)cn4)cc3P(C)(C)=O)n2)c(OC)cc1N1CCC(N2CCN(C)CC2)CC1` [Compound K-074, (2-((5-Bromo-2-((5-ethyl-2-methoxy-4-(4-(4-methylpiperazin-1-yl)piperidin-1-yl)phenyl)amino)pyrimidin-4-yl)amino)-5-(5-methoxypyridin-2-yl)phenyl)dimethylphosphine oxide], the GI50 in experiment [1] stood at 4.2 nM; in experiment [2] it was 267 nM. Moreover, the IC50 at IGF1R was determined as 253 nM; in the experiment on A431 (Homo sapiens, A-431, 72 h), 2760 nM; on EGFR WT, 35.8 nM; against EGFRΔ19del/T790M/C797S, 0.4 nM.
For `CCc1cc(Nc2ncc(Br)c(Nc3ccc(-c4nn(C)c5ncccc45)cc3P(C)(C)=O)n2)c(OC)cc1N1CCC(N(C)C)CC1` [Compound K-079, (2-((5-Bromo-2-((4-(4-(dimethylamino)piperidin-1-yl)-5-ethyl-2-methoxyphenyl)amino)pyrimidine-4-yl)amino)-5-(1-methyl-1H-pyrazolo[3,4-b]pyridin-3-yl)phenyl)dimethylphosphine oxide], the figures for the GI50 in experiment [1] and in experiment [2] were 50.9 nM and 432 nM, respectively. The IC50 at IGF1R was determined as 997 nM; in the experiment with A431 (Homo sapiens, A-431, 72 h), 7650 nM; at EGFR WT, 149 nM; on EGFRΔ19del/T790M/C797S it was 0.5 nM.
